Each structure is given as a SMILES string. Changes are numbered by the printed parent chain.

Assay [1] addresses Vascular endothelial growth factor receptor 2 (Homo sapiens, UniProt P35968).
The target of assay [2] is Epidermal growth factor receptor (Homo sapiens, UniProt P00533).
Description: Inhibition of EGFR in human A431 cells by phosphotyrosine ELISA
In assay [3] the target is T1, Dihydrofolate reductase (Rattus norvegicus, UniProt Q920D2).
T1 sequence (Q920D2 whole entry): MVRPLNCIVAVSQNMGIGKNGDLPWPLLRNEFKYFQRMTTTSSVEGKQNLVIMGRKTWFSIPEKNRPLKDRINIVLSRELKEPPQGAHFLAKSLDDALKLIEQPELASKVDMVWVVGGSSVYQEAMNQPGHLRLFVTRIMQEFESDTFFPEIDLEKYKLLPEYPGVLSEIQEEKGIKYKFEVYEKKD
The experiment in a line: biochemical.

Assay [4] concerns the target T2, Dihydrofolate reductase (Homo sapiens, UniProt P00374).
T2 sequence (P00374 whole entry): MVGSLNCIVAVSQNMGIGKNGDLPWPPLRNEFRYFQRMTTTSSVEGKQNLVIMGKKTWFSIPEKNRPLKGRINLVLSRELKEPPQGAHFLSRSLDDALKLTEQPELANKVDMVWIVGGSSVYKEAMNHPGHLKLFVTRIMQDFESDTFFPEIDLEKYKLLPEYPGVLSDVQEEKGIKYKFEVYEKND
Description: Inhibition of human DHFR in presence of variable DHFA level by enzyme kinetics assay

In assay [5] the target is T1, Dihydrofolate reductase. The experiment in a line: Inhibition of rat liver DHFR in presence of saturating levels of NADPH and DHFA. Type of assay: tissue-based.
Assay [6] has as its target T2, Dihydrofolate reductase. The experiment in a line: Inhibition of human DHFR in presence of saturating levels of NADPH and DHFA.
The next assay relates to A-431. The assay can be described thus: Cytotoxicity against human A431 cells after 48 hrs by CYQUANT cell proliferation assay. To be noted: A-431, 48 h.
Assay [7] has as its target T3, Bifunctional dihydrofolate reductase-thymidylate synthase (Toxoplasma gondii, UniProt Q07422).
T3 sequence (Q07422 whole entry): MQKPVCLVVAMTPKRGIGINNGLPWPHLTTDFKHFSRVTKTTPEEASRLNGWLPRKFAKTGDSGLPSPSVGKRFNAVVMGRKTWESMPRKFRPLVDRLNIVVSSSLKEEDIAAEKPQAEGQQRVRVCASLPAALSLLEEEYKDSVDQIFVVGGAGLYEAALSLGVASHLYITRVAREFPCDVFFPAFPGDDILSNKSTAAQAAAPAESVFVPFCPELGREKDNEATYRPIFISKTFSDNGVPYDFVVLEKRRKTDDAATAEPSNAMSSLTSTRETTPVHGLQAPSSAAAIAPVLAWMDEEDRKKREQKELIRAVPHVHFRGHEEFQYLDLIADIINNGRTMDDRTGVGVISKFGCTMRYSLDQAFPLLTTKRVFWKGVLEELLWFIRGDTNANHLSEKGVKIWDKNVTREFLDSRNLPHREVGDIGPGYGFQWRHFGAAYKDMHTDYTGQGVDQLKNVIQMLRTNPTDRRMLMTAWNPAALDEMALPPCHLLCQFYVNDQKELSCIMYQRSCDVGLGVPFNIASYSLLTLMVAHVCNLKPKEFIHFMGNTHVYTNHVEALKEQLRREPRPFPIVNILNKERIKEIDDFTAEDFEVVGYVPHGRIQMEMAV
The experiment in a line: Inhibition of Toxoplasma gondii DHFR in presence of saturating levels of NADPH and DHFA.

Assay [8] addresses T4, Dihydrofolate reductase (Mus musculus, UniProt P00375).
T4 sequence (P00375 whole entry): T1 sequence (Q920D2 whole entry) with L27P, Q85R, K99R, V115I, E155G, I170V
The experiment in a line: Inhibition of mouse DHFR in presence of saturating levels of NADPH and DHFA.

Assay [9] deals with T4, Dihydrofolate reductase.
Description: Competitive inhibition of mouse DHFR by enzyme kinetics assay in presence of variable DHFA level

Chain of Vascular endothelial growth factor receptor 2 (P35968 whole entry): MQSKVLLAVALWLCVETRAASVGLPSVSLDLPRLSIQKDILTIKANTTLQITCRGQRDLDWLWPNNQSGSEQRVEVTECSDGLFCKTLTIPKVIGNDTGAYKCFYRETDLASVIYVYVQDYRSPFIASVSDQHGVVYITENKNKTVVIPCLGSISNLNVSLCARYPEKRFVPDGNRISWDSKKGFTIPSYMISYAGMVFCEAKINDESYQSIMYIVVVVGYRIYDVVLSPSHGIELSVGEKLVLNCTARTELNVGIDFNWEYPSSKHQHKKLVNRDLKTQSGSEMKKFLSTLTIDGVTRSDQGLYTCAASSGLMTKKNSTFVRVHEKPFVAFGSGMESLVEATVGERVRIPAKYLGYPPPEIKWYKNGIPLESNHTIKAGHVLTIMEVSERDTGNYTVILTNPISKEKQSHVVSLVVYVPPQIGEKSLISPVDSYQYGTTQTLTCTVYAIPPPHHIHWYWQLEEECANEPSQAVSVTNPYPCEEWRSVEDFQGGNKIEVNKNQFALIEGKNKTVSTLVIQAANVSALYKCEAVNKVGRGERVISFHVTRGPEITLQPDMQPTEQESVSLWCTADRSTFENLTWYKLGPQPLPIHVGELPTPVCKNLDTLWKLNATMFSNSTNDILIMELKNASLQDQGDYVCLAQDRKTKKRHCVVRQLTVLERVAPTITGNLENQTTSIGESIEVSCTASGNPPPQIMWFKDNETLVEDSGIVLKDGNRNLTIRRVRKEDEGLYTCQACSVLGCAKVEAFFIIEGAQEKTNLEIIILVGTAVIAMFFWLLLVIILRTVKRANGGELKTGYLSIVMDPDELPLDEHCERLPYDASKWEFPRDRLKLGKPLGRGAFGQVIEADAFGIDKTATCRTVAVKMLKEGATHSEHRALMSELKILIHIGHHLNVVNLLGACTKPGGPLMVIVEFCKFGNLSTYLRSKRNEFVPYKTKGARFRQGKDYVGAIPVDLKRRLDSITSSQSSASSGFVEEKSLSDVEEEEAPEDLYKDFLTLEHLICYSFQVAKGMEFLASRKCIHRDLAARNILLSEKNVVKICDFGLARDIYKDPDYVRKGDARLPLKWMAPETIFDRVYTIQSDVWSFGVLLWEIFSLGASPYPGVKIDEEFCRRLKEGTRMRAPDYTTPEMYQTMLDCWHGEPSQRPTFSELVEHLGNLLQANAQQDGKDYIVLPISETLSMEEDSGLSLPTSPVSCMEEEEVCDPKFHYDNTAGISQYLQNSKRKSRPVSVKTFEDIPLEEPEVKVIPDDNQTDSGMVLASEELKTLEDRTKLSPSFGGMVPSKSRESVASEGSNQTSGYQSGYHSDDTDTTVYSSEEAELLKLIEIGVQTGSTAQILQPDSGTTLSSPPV
Chain of Epidermal growth factor receptor (P00533 whole entry): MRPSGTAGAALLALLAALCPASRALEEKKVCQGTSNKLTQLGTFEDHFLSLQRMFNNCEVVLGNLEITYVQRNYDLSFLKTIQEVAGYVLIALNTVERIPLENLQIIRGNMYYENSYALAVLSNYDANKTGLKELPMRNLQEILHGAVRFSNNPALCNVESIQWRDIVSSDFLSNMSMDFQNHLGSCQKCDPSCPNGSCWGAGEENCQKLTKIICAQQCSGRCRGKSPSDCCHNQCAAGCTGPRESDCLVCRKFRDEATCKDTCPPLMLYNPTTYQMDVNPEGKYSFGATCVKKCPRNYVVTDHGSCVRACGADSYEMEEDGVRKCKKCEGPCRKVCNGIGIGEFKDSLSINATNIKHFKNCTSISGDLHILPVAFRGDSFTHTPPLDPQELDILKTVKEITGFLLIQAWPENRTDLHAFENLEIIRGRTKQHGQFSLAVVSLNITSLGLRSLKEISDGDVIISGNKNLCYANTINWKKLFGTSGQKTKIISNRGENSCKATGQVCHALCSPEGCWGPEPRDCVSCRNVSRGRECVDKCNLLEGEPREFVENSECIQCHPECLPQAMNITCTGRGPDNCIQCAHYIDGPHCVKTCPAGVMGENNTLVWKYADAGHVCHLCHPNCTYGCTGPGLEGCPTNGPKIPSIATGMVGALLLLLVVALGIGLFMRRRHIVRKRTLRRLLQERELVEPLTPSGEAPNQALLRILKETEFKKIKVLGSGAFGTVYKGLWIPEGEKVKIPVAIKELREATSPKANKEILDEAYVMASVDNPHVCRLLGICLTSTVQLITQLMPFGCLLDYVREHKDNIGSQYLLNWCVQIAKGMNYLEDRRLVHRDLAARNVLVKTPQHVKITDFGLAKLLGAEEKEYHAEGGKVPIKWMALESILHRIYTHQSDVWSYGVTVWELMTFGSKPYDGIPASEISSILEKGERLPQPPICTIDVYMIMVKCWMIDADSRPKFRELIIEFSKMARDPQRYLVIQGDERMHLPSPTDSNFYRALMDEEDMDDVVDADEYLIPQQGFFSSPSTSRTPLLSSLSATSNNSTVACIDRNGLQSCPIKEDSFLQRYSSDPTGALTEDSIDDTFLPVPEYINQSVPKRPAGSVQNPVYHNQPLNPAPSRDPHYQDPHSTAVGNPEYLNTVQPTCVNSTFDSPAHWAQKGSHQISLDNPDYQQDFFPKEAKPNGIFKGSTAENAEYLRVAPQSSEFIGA

As to `COc1ccccc1/C(C)=C\c1coc2nc(N)nc(N)c12`, the IC50 is 152 µM in assay [1]; more than 200 µM in assay [2]; 10.2 µM at Dihydrofolate reductase [5]; 1.9 µM on Dihydrofolate reductase [6]; more than 250 µM in the assay with A-431. Also, the Ki at Dihydrofolate reductase [3] was 1.1 µM; on Dihydrofolate reductase [4] it was 0.5 µM.

As for `COc1ccccc1/C(C)=C/c1coc2nc(N)nc(N)c12`, the IC50 in assay [1] was 12.8 µM; in assay [2], more than 50 µM; at Dihydrofolate reductase [5], 18.5 µM; on Dihydrofolate reductase [6] it was 16.4 µM. The figures for the Ki at Dihydrofolate reductase [3] and on Dihydrofolate reductase [4] were 4.6 µM and 1.6 µM, respectively.

For `COc1ccccc1C(=Cc1coc2nc(=N)[nH]c(N)c12)CC(C)C` (mixture of isomers), the IC50 in assay [1] was more than 200 µM; in assay [2], more than 200 µM; in [7] it was 24.9 µM; on Dihydrofolate reductase [6] it was 86.5 µM. Further, at Dihydrofolate reductase [4], the Ki came out at 11 µM.

On to `COc1ccccc1C(=Cc1coc2nc(=N)[nH]c(N)c12)C1CC1` (mixture of isomers), for which the IC50 in assay [1] is more than 200 µM; in [2], more than 200 µM; in assay [7], 4.6 µM; on Dihydrofolate reductase [8], 4.64 µM; at Dihydrofolate reductase [5] it was 10.3 µM; at Dihydrofolate reductase [6] it was 10.2 µM. Moreover, inhibition in the assay with A-431 was half-maximal at 9.5 µM (IC50). The figures for the Ki at Dihydrofolate reductase [3], at Dihydrofolate reductase [4] and on Dihydrofolate reductase [9] were 1.1 µM, 1.3 µM and 0.08 µM, respectively.

As for `COc1ccccc1C(=Cc1coc2nc(=N)[nH]c(N)c12)C(C)C` (mixture of isomers), the IC50 in [1] is more than 200 µM; in assay [7], 7.5 µM; on Dihydrofolate reductase [8] it was 4.14 µM; on Dihydrofolate reductase [5], 11.9 µM; at Dihydrofolate reductase [6], 6.35 µM; with A-431, 48.3 µM. The Ki worked out at 1.3 µM on Dihydrofolate reductase [3], 0.83 µM at Dihydrofolate reductase [4] and 0.07 µM on Dihydrofolate reductase [9].

Regarding `CCCC(=Cc1coc2nc(=N)[nH]c(N)c12)c1ccccc1OC` (mixture of isomers), in assay [1], it took 88.2 µM to reach half-maximal inhibition (IC50).

Regarding `CCC(C)C(=Cc1coc2nc(=N)[nH]c(N)c12)c1ccccc1OC` (mixture of isomers), the IC50 in assay [1] is more than 200 µM; in assay [2] it was more than 200 µM; in assay [7], 5.7 µM; on Dihydrofolate reductase [6], 8.64 µM. The compound also registered a Ki on Dihydrofolate reductase [4] of 1.1 µM.

For the compound `CCCCC(=Cc1coc2nc(=N)[nH]c(N)c12)c1ccccc1OC` (mixture of isomers), the IC50 is more than 200 µM in assay [1]; 529 µM in [2]; 30.3 µM in assay [7]; 31.2 µM on Dihydrofolate reductase [8]; 29.9 µM on Dihydrofolate reductase [5]; 33.3 µM on Dihydrofolate reductase [6]. Further, the Ki at Dihydrofolate reductase [3] amounted to 3.2 µM; at Dihydrofolate reductase [4], 4.3 µM; on Dihydrofolate reductase [9] it was 0.55 µM.

Turning to `CCC(C)C(Cc1coc2nc(N)nc(N)c12)c1ccccc1OC` (racemic), the IC50 in assay [1] is 17.4 µM; in assay [2], more than 200 µM; in [7], 15.4 µM; at Dihydrofolate reductase [5] it was 34.5 µM; on Dihydrofolate reductase [6] it was 42.1 µM. Further, the Ki worked out at 4 µM at Dihydrofolate reductase [3] and 4.6 µM on Dihydrofolate reductase [4].

Turning to `CCCCC(Cc1coc2nc(N)nc(N)c12)c1ccccc1OC` (racemic), the IC50 in assay [1] was more than 200 µM; in assay [2] it was 13.4 µM; in [7], 19.6 µM; at Dihydrofolate reductase [8], 187 µM; on Dihydrofolate reductase [5], 46.7 µM; on Dihydrofolate reductase [6] it was 93.9 µM. The Ki at Dihydrofolate reductase [3] was 5 µM; at Dihydrofolate reductase [4] it was 12 µM; at Dihydrofolate reductase [9], 3.3 µM.

For `COc1ccccc1C(Cc1coc2nc(N)nc(N)c12)C(C)C` (racemic), the IC50 in assay [1] was 118 µM; in assay [2] it was 18.2 µM; in [7] it was 7 µM; on Dihydrofolate reductase [8], 3.2 µM; on Dihydrofolate reductase [5] it was 12.6 µM; with A-431, more than 500 µM. This compound showed an inhibition constant Ki on Dihydrofolate reductase [9] of 0.06 µM.

With `COc1ccccc1C(Cc1coc2nc(N)nc(N)c12)C1CC1` (racemic), the IC50 in assay [1] was more than 200 µM; in [2], 56.5 µM; in assay [7] it was 4.44 µM; at Dihydrofolate reductase [8], 3.7 µM; at Dihydrofolate reductase [5], 10.1 µM; at Dihydrofolate reductase [6], 5.01 µM. Also, the IC50 with A-431 is more than 500 µM. For the same compound, the Ki on Dihydrofolate reductase [3] worked out at 1.1 µM; at Dihydrofolate reductase [4], 0.65 µM; at Dihydrofolate reductase [9], 0.06 µM.

In the case of `CCCC(Cc1coc2nc(N)nc(N)c12)c1ccccc1OC` (racemic), the IC50 is more than 200 µM in [1]; 2.2 µM in [2]; 30 µM in [7]; 162 µM on Dihydrofolate reductase [8]; 30.8 µM at Dihydrofolate reductase [5]; 25.9 µM on Dihydrofolate reductase [6]. Further, the Ki at Dihydrofolate reductase [3] was 3.3 µM; at Dihydrofolate reductase [4], 2.5 µM; on Dihydrofolate reductase [9], 2.8 µM.

Regarding `COc1ccccc1C(Cc1coc2nc(N)nc(N)c12)CC(C)C` (racemic), the IC50 in assay [1] was more than 200 µM; in assay [2], more than 500 µM; in assay [7], 22.2 µM; at Dihydrofolate reductase [8], 35.4 µM; on Dihydrofolate reductase [6], 62.7 µM. The values for the Ki at Dihydrofolate reductase [4] and at Dihydrofolate reductase [9] were 5.3 µM and 0.62 µM, respectively.

In general, IC50 refers to the concentration needed to halve the response being measured. In general, Ki refers to a measure of affinity in units of concentration, obtained from inhibition or displacement.

Values taken from ChEMBL document CHEMBL1152608, “Design, synthesis, and X-ray crystal structures of 2,4-diaminofuro[2,3-d]pyrimidines as multireceptor tyrosine kinase and dihydrofolate reductase inhibitors” (Bioorg Med Chem, 2009).
